Here are results for nine molecules from patent US7189851B2, “Condensed heterocyclic compounds as calcitonin agonists” (SmithKline Beecham Corporation, priority 2002, dated 2007).

pEC50: −log10 of the molar value.

The target of data set [1] is T1, human calcitonin-2 receptor (hCT2R) (Homo sapiens, UniProt P30988).
T1 construct: expressed in transfected cells; host or cells: Chinese hamster ovary (CHO) cells co-transfected with a 6CRE-luciferase reporter; receptor cDNA cloned from the MCF7 cell line
T1 sequence (P30988 25-474): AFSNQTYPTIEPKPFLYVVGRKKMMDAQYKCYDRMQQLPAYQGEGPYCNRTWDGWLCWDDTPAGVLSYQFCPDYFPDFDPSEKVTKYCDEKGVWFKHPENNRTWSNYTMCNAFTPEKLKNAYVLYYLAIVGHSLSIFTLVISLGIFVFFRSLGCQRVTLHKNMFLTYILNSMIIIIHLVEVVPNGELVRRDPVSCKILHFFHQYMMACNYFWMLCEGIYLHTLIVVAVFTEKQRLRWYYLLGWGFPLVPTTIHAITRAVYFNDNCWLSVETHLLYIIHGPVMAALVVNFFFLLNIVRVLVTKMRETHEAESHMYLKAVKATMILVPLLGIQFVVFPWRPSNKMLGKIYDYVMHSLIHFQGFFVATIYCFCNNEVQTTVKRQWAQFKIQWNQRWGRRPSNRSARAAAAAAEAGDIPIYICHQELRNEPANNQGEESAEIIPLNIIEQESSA
In words: HCT2R CRE-luc reporter assay. Type of data set: cell-based. As to conditions: agonist activity; CHO-6CRE-luciferase cells co-transfected with hCT2R. A general note: In a reporter assay the amount or activity of a reporter protein is the signal.

Data set [2] concerns Thyroid-parathyroidectomized (TPTX) rats. The data set is described as follows: Rat TPTX assay in vivo (PTH-induced elevation of serum calcium). The arrangement: key to TPTX rat in vivo: Active: TPTX (Thyroid- parathyroidectomized) rat: Significant inhibition of bone resorption reflected in serum calcium levels relative to PTH + Vehicle controls. As to conditions: for TPTX rat in vivo: serum calcium, PTH-infused TPTX rats, vs PTH + Vehicle. From the text: Thyroid-parathyroidectomized (TPTX) rats were used to determine the effects of compounds on PTH-induced elevation of serum calcium in vivo. The thyroid and parathyroid glands of male CD rats were removed under anesthesia and subcutaneous pumps containing human parathyroid hormone (hPTH 1–34) were implanted two to five days after TPTX. […] PTH was delivered at a rate of 30 micrograms/kg/hour. PTH causes significant elevations of serum calcium in TPTX rats given no other treatments. Rats were treated with vehicle, test compounds at various doses or calcitonin 16 units/kg SC. […] Serurn calcium was measured at baseline and every two hours up to six hours. Averaged group responses at each time point were compared using Analysis of Variance (ANOVA).

In another data set the test system is neonatal rat calvaria. The data set is described as follows: Rat calvaria assay in vitro (bone resorption). Type of data set: cell-based. The arrangement: key: Active: Rat calvaria: Concentration-dependent inhibition of bone resorption with efficacy equivalent to calcitonin 1 ng/ml. As to conditions: PTH 10 ng/ml stimulated bone resorption; calcium and deoxypyridinoline in supernatant. The method, then: Bone resorption of neonatal rat cavarial chips was measured using methods adapted from published protocols [Ulf H, Lemer Modifications of the Mouse Calvarial Technique Improve the Responsiveness to Stimulators of Bone Resorption. Journal of Bone and Mineral Research Vol 2, No. 5, 1987]. Resorption was measured by quantification of calcium in the supernatant by a calorimetric assay and of deoxypyridinoline in the supernatant by ELISA. Deoxypyridinoline is released as a by product of collagen degradation by the osteoclast
Calvaria were surgically removed from 2–3 day old Wistar rats and placed in a sterile tube containing BGJb media (Fitton-Jackson Modification)—GIBCO BRL with penicillin (10 U/ml)/streptomycin (10 μg/ml). Calvaria were washed twice with fresh media, trimmed of excess tissue, and placed in fresh media. Calvaria were uniformly sectioned and placed in the wells of a tissue culture plate in 1 ml of BGJb/P/S with 1 mg/ml BSA. Calvaria were incubated for 24 hours at 37° C., 5% CO2 before treatments. Media was aspirated and replaced with 1 ml of fresh media containing PTH 10 ng/ml . Unstimulated wells contained media alone. Test compounds or calcitonin (1 ng/ml) were added. Compounds or calcitonin were added again on days 2 and 3, with no medium or PTH additions. Upon completion of the assay, the media was collected and stored at −20° C. until analysis was performed. Calvaria were air-dried for several days, and dry weight was quantified.
Deoxypyridinoline ELISA: Supernatants were evaluated for deoxypyridinoline crosslinks according to kit manufacturer instructions. SoftMax software was used to evaluate ELISA data from a 96-well format to generate a standard curve. Sample values were extrapolated from this standard curve. Extrapolated sample values were imported into a Microsoft Excel to normalize sample values to dried calvarial weight. Data was expressed as nanomolar DPD/mg calvaria.
Calcium analysis: Calcium determinations were made using Arsenazo III reagent from Sigma Diagnostics No. 588. Procedure followed as described by manufacturer in kit instructions. Data was imported from plate reader into Microsoft® Excel® and calcium concentrations were calculated as follows: [Asample/Astandard]×Concentration of standard=mg/dL Calcium
Sample values were normalized to dried calvarial weight and expressed as mg/dL calcium per mg calvaria.

The subject of the next data set is Human osteoclasts. The data set is described as follows: Human osteoclast assay in vitro (bone resorption). Type of data set: cell-based. As to conditions: inhibition of bone resorption on cortical bone slices, 3 to 7 days. The arrangement: key: Active: Human osteoclast: Significant inhibition of bone resorption in the absence of toxicity, relative to vehicle-treated controls. As to the method:
Human osteoclasts were differentiated from peripheral blood cells using methods adapted from published protocols [Journal of Experimental Medicine 188(5):997–1001, 1998. TRANCE is necessary and sufficient for osteoblast-mediated activation of bone resorption in osteoclasts. K Fuller, B Wong, S Fox, Y Choi, and T J Chambers]. Human mononuclear cells were incubated on bone slices in M_CSF (30 ng/ml) and RANKL (TRANCE, 30 ng/ml) for 10 days. Differentiated osteoclasts were identified using an osteoclast-specific monoclonal antibody. Osteoclasts with test compounds or vehicle were incubated on cortical bone slices for an additional 3 to 7 days to measure bone resorption. In addition to bone resorption, toxicity and osteoclastogenesis were observed after compound treatments. A positive response was defined as significant inhibition of bone resorption without toxicity.

For `CCOC(=O)c1c(CCc2ccc(C(F)(F)F)cc2)nc2c(c1-c1ccc(S(=O)(=O)NCc3ccco3)cc1)C(=O)N1CCC[C@@H]21` [Example 2, Ethyl (9aS)-4-(4-{[(2-furylmethyl)amino]sulfonyl}phenyl)-5-oxo-2-{2-[4-(trifluoromethyl)phenyl]ethyl}-7,8,9,9a-tetrahydro-5H-pyrido[2,3-a]pyrrolizine-3-carboxylate], the melting point (as a rule, the temperature of the solid-liquid transition) fell in the range of 181 to 182 °C. Also, the pEC50 (usually the EC50 on a negative log10 scale, so that one unit is a factor of ten) in data set [1] was 6.00 to 7.00.
For the molecule `CCOC(=O)c1c(CCc2ccc(C(F)(F)F)cc2)nc2c(c1-c1ccc(C(=O)N[C@H](C)c3ccncc3)cc1)C(=O)N1CCC[C@@H]21` [Example 4, Ethyl (9aS)-5-oxo-4-[4-({[(1R)-1-(4-pyridinyl)ethyl]amino}carbonyl)phenyl]-2-{2-[4-(trifluoromethyl)phenyl]ethyl}-7,8,9,9a-tetrahydro-5H-pyrido[2,3-a]pyrrolizine-3-carboxylate], the pEC50 in data set [1] was 7.00 to 8.00. In data set [2], the “TPTX rat in vivo” value is “Active”. Moreover, the “Rat calvaria in vitro” value with neonatal rat calvaria is “Active”.
In turn, `CCOC(=O)c1c(CCc2ccc(C(F)(F)F)cc2)nc2c(c1-c1ccc(C(=O)N[C@@H](C)c3ccncc3)cc1)C(=O)N1CCC[C@@H]21` [Example 5, Ethyl (9aS)-5-oxo-4-[4-({[(1S)-1-(4-pyridinyl)ethyl]amino}carbonyl)phenyl]-2-{2-[4-(trifluoromethyl)phenyl]ethyl}-7,8,9,9a-tetrahydro-5H-pyrido[2,3-α]pyrrolizine-3-carboxylate] came in with a melting point of 158 to 160 °C. The pEC50 in data set [1] is 6.00 to 7.00. In addition, in data set [2], the “TPTX rat in vivo” value is “Active”. Further, in the data set on neonatal rat calvaria, the “Rat calvaria in vitro” value is “Active”.
On to `CCOC(=O)c1c(CCc2ccc(C(F)(F)F)cc2)nc2c(c1-c1ccc(NC(=O)Nc3ccccc3)cc1)C(=O)N1CCC[C@@H]21` [Example 7, Ethyl (9aS)-4-{4-[(anilinocarbonyl)amino]phenyl}-5-oxo-2-{2-[4-(trifluoromethyl)phenyl]ethyl}-7,8,9,9a-tetrahydro-5H-pyrido[2,3-α]pyrrolizine-3-carboxylate], for which the melting point fell in the range of 137 to 139 °C. Besides, in data set [1], the pEC50 is 6.00 to 7.00.
With `CCOC(=O)c1c(CCc2ccc(C(F)(F)F)cc2)nc2c(c1-c1ccc(C(=O)NCc3ccco3)cc1)C(=O)N1CCC[C@@H]21` [Example 11, Ethyl(9aS)-4-(4-{[(2-furylmethyl)amino]carbonyl}phenyl)-5-oxo-2-{2-[4-(trifluoromethyl)phenyl]ethyl}-7,8,9,9a-tetrahydro-5H-pyrido[2,3-a]pyrrolizine-3-carboxylate], the pEC50 in data set [1] is not below 8.00. For the same molecule, the “Human osteoclast in vitro” value with Human osteoclasts is on record as “Active”. The “Rat calvaria in vitro” value in the data set with neonatal rat calvaria is listed as “Active”.
As for `CCOC(=O)c1c(CCc2ccc(C(F)(F)F)cc2)nc2c(c1-c1ccc(C(=O)NCc3cccnc3)o1)C(=O)N1CCC[C@@H]21` [Example 12, Ethyl(9aS)-5-oxo-4-(5-{[(3-pyridinylmethyl)amino]carbonyl}-2-furyl)-2-{2-[4-(trifluoromethyl)phenyl]ethyl}-7,8,9,9a-tetrahydro-5H-pyrido[2,3-a]pyrrolyzine-3-carboxylate], the pEC50 in data set [1] is 7.00 to 8.00. Besides, the “Human osteoclast in vitro” value in the data set on Human osteoclasts is “Active”. Also, the “TPTX rat in vivo” value in data set [2] is given as “Active”. The “Rat calvaria in vitro” value with neonatal rat calvaria is “Active”.
As for `CCOC(=O)c1c(CCc2ccc(F)cc2)nc2c(c1-c1cc(C(=O)NCc3ccc(F)c(F)c3)cs1)C(=O)N1CCC[C@@H]21` [Example 16, Ethyl(9aS)-4-(4-{[(3,4-difluorobenzyl)amino]carbonyl}-2-thienyl)-2-[2-(4-fluorophenyl)ethyl]-5-oxo-7,8,9,9a-tetrahydro-5H-pyrido[2,3-a]pyrrolizine-3-carboxylate], in data set [1], the pEC50 is not below 8.00. In data set [2], the “TPTX rat in vivo” value is given as “Active”. The “Rat calvaria in vitro” value in the data set with neonatal rat calvaria was “Active”.
As to `CCOC(=O)c1c(CCc2ccc(OC)cc2)nc2c(c1-c1ccc(C(=O)NCc3ccccn3)cc1)C(=O)N1CCC[C@H]1C2` [Example 57, Ethyl (9aS)-2-[2-(4-methoxyphenyl)ethyl]-5-oxo-4-(4-{[(2-pyridinylmethyl)amino]carbonyl}phenyl)-5,7,8,9,9a,10-hexahydropyrrolo[1,2-g][1,6]naphthyridine-3-carboxylate], the melting point was more than 200 °C. The pEC50 in data set [1] was not above 6.00.
Regarding calcitonin [reference compound], the “suppression of PTH-induced hypercalcemia” value in data set [2] (16 units/kg SC, TPTX rats) is given as “maximal suppression”.
